What was measured:
Type in all cases: in vivo
[1] = test system: Russian thistle (Salsola iberica); assay: Test B pre-/postemergence plant response; details: Preemergence; for Russian Thistle plant response rating: scale 0 to 100
Source text: (§1) Seeds of plant species selected from blackgrass (Alopecurus myosuroides), downy bromegrass (Bromus tectorum), green foxtail (Setaria viridis), Italian ryegrass (Lolium multiflorum), wheat (Triticum aestivum), wild oat (Avena fatua), catchweed bedstraw (Galium aparine), bermudagrass (Cynodon dactylon), surinam grass (Brachiaria decumbens), cocklebur (Xanthium strumarium), corn (Zea mays), large crabgrass (Digitaria sanguinalis), woolly cupgrass (Eriochloa villosa), giant foxtail (Setaria faberii), goosegrass (Eleusine indica), johnsongrass (Sorghum halepense), kochia (Kochia scoparia), lambsquarters (Chenopodium album), morningglory (Ipomoea coccinea), eastern black (E.B.) nightshade (Solanum ptycanthum), yellow nutsedge (Cyperus esculentus), pigweed (Amaranthus retroflexus), common ragweed (Ambrosia elation), Russian thistle (Salsola iberica), soybean (Glycine max), common (oilseed) sunflower (Helianthus annuus), and velvetleaf (Abutilon theophrasti) were planted and treated preemergence with test chemicals formulated in a non-phytotoxic solvent mixture which included a surfactant.
(§2) At the same time, plants selected from these crop and weed species and also winter barley (Hordeum vulgare), canarygrass (Phalaris minor), chickweed (Stellaria media) and windgrass (Apera spica-venti) were treated with postemergence applications of some of the test chemicals formulated in the same manner. Plants ranged in height from 2 to 18 cm (1- to 4-leaf stage) for postemergence treatments.
(§3) Plant species in the flooded paddy test consisted of rice (Oryza sativa), umbrella sedge (Cyperus difformis), ducksalad (Heteranthera limosa) and barnyardgrass (Echinochloa crus-galli) grown to the 2-leaf stage for testing. At time of treatment, test pots were flooded to 3 cm above the soil surface, treated by application of test compounds directly to the paddy water, and then maintained at that water depth for the duration of the test. Treated plants and controls were maintained in a greenhouse for 13 to 15 days, after which time all species were compared to controls and visually evaluated. Plant response ratings, summarized in Table B, are based on a scale of 0 to 100 where 0 is no effect and 100 is complete control. A dash (-) response means no test result.

[2] = test system: common (oilseed) sunflower (Helianthus annuus); assay: Test B pre-/postemergence plant response; details: Preemergence; for Sunflower plant response rating: scale 0 to 100
Source text: as §1, §2, §3

[3] = test system: downy bromegrass (Bromus tectorum); assay: Test B pre-/postemergence plant response
Source text: as §1, §2, §3

[4] = test system: eastern black (E.B.) nightshade (Solanum ptycanthum); assay: Test B pre-/postemergence plant response; details: Preemergence; for Nightshade, E. B. plant response rating: scale 0 to 100
Source text: as §1, §2, §3

[5] = test system: giant foxtail (Setaria faberii); assay: Test B pre-/postemergence plant response
Source text: as §1, §2, §3

[6] = test system: goosegrass (Eleusine indica); assay: Test B pre-/postemergence plant response
Source text: as §1, §2, §3

[7] = test system: morningglory (Ipomoea coccinea); assay: Test B pre-/postemergence plant response
Source text: as §1, §2, §3

soybean (Glycine max) = assay: Test B pre-/postemergence plant response
Source text: as §1, §2, §3

[8] = test system: surinam grass (Brachiaria decumbens); assay: Test B pre-/postemergence plant response
Source text: as §1, §2, §3

[9] = test system: wheat (Triticum aestivum); assay: Test B pre-/postemergence plant response
Source text: as §1, §2, §3

[10] = test system: barnyardgrass (Echinochloa crus-galli); assay: Test B flooded paddy test plant response; details: Flood (flooded paddy test), scale 0 to 100, 0 no effect, 100 complete control
How it was run: (§4)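 2-leaf plants; pots flooded 3 cm above soil; compound added to paddy water; depth maintained. Greenhouse 13–15 d. Visual rating vs controls, 0 (no effect) to 100 (complete control); dash = no result.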

[11] = test system: ducksalad (Heteranthera limosa); assay: Test B flooded paddy test plant response; details: Flood (flooded paddy test), scale 0 to 100, 0 no effect, 100 complete control
How it was run: as §4

rice (Oryza sativa) = assay: Test B flooded paddy test plant response; details: Flood (flooded paddy test), scale 0 to 100, 0 no effect, 100 complete control
How it was run: as §4

[12] = test system: umbrella sedge (Cyperus difformis); assay: Test B flooded paddy test plant response; details: Flood (flooded paddy test), scale 0 to 100, 0 no effect, 100 complete control
How it was run: as §4

[13] = 31 g ai/ha, scale 0 to 100 (0 no effect, 100 complete control)
[14] = 62 g ai/ha, 0 to 100 scale, 0 no effect, 100 complete control
[15] = 8 g ai/ha, postemergence, 0-100 scale
[16] = Postemergence, 16 g ai/ha, scale 0 to 100
[17] = Postemergence, 31 g ai/ha, scale 0 to 100
[18] = Postemergence, 62 g ai/ha, scale 0 to 100, 0 no effect, 100 complete control
[19] = Preemergence, 31 g ai/ha, scale 0 to 100 (0 no effect, 100 complete control)
[20] = Preemergence, 62 g ai/ha, 0 to 100 scale, 0 no effect, 100 complete control
[21] = Preemergence, 8 g ai/ha, scale 0 to 100
[22] = Preemergence, 16 g ai/ha, scale 0 to 100
[23] = 16 g ai/ha, postemergence, 0-100 scale

CCCc1cc(-c2ccc(Cl)cc2)nn1-c1c(O)cnn(C)c1=O [Compound 76]
20: Plant response rating, Bromegrass, Downy [3, 18] | Goosegrass plant response rating [6, 15] | Goosegrass plant response rating [6, 21]
30: Wheat plant response rating [9, 23] | Plant response rating, Wheat [9, 17]
75: Foxtail, Giant plant response rating [5, 15] | Plant response rating, Goosegrass [6, 18] | Goosegrass plant response rating [6, 22]
35: Plant response rating, Wheat [9, 18]
70: Foxtail, Giant plant response rating [5, 22] | Plant response rating, Goosegrass [6, 17]
0: Plant response rating, Russian Thistle [1, 13] | Plant response rating, Russian Thistle [1, 14] | Russian Thistle plant response rating ([1]; 8 g ai/ha) | Russian Thistle plant response rating ([1]; 16 g ai/ha) | Plant response rating, Sunflower [2, 13] | Plant response rating, Sunflower [2, 14] | Sunflower plant response rating ([2]; 8 g ai/ha) | Sunflower plant response rating ([2]; 16 g ai/ha) | Bromegrass, Downy plant response rating [3, 15] | Plant response rating, Bromegrass, Downy [3, 16] | Plant response rating, Bromegrass, Downy [3, 17] | Plant response rating, Bromegrass, Downy [3, 19] | Plant response rating, Bromegrass, Downy [3, 20] | Bromegrass, Downy plant response rating [3, 21] | Bromegrass, Downy plant response rating [3, 22] | Plant response rating, Nightshade, E. B. [4, 13] | Plant response rating, Nightshade, E. B. [4, 14] | Nightshade, E. B. plant response rating ([4]; 8 g ai/ha) | Nightshade, E. B. plant response rating ([4]; 16 g ai/ha) | Foxtail, Giant plant response rating [5, 21] | Morningglory plant response rating [7, 15] | Morningglory plant response rating [7, 23] | Plant response rating, Morningglory [7, 17] | Plant response rating, Morningglory [7, 18] | Plant response rating, Morningglory [7, 19] | Plant response rating, Morningglory [7, 20] | Morningglory plant response rating [7, 21] | Morningglory plant response rating [7, 22] | Soybean plant response rating (soybean (Glycine max); [15]) | Soybean plant response rating (soybean (Glycine max); [23]) | Plant response rating, Soybean (soybean (Glycine max); [17]) | Plant response rating, Soybean (soybean (Glycine max); [18]) | Plant response rating, Soybean (soybean (Glycine max); [19]) | Plant response rating, Soybean (soybean (Glycine max); [20]) | Soybean plant response rating (soybean (Glycine max); [21]) | Soybean plant response rating (soybean (Glycine max); [22]) | Plant response rating, Wheat [9, 19] | Plant response rating, Wheat [9, 20] | Wheat plant response rating [9, 22] | Plant response rating, Barnyardgrass ([10]; 62 g ai/ha) | Plant response rating, Barnyardgrass ([10]; 250 g ai/ha) | Plant response rating, Ducksalad ([11]; 62 g ai/ha) | Plant response rating, Ducksalad ([11]; 250 g ai/ha) | Plant response rating, Rice (rice (Oryza sativa); 62 g ai/ha) | Plant response rating, Rice (rice (Oryza sativa); 250 g ai/ha) | Plant response rating, Sedge, Umbrella ([12]; 62 g ai/ha) | Plant response rating, Sedge, Umbrella ([12]; 250 g ai/ha)
90: Plant response rating, Foxtail, Giant [5, 19] | Surinam Grass plant response rating [8, 23] | Surinam Grass plant response rating [8, 22]
85: Plant response rating, Foxtail, Giant [5, 16]
100: Plant response rating, Foxtail, Giant [5, 20] | Plant response rating, Goosegrass [6, 20] | Plant response rating, Surinam Grass [8, 17] | Plant response rating, Surinam Grass [8, 18] | Plant response rating, Surinam Grass [8, 20]
98: Plant response rating, Foxtail, Giant [5, 18]
80: Plant response rating, Goosegrass [6, 19]
65: Surinam Grass plant response rating [8, 15] | Surinam Grass plant response rating [8, 21]
60: Goosegrass plant response rating [6, 23]
95: Plant response rating, Foxtail, Giant [5, 17] | Plant response rating, Surinam Grass [8, 19]
10: Wheat plant response rating [9, 15]

Source: patent US20100267561A1, “HERBICIDAL PYRIDAZINONE DERIVATIVES” (priority 2007, published 2010)
